# Data: article PMC6359144 (International Journal of Molecular Sciences, 2019)
# “Also recorded” adds a separate entry of the source. Like-named read-outs stand apart in the source and are kept apart here.
# What was measured:
# 518A2 melanoma cells = experiment: MTT assay, 518A2 melanoma cells; assay type: cell-based, human; settings: for IC50: Homo sapiens, MTT, mean ± SD of four experiments
# Experimental: HT-29 (ACC-299), HCT-116 (ACC-581) and DLD-1 (ACC-278) colon carcinoma, MCF-7 (ACC-115) breast carcinoma, KB-V1 (ACC-149), 518A2 (Department of Radiotherapy and Radiobiology, University Hospital Vienna) melanoma and Ea.Hy926 (ATCC no. CRL-2922) HUVEC derived endothelial hybrid cells line were grown in Dulbecco’s Modified Eagle Medium (DMEM; Biochrom), high glucose supplemented with 10% (v/v) fetal bovine serum (FBS; Biochrom.) and 1% (v/v) Antibiotic-Antimycotic solution (anti-anti; Thermo Scientific). HDFa human dermal fibroblasts (ATCC: PCS-201-012™) were grown in DMEM supplemented with 10% FBS, 1% anti-anti and 2 mM glutamine. The cells were incubated at 37 °C, 5% CO2, 95% humidified atmosphere. By repeated addition of topotecan or vinblastine at the maximum tolerated dose to the cell medium of MCF-7 and KB-V1 cells, the cells were rendered multidrug-resistant, indicated as MCF-7^Topo and KB-V1^Vbl, respectively. They were serially passaged following trypsinization by using 0.05% trypsin/0.02% EDTA (Biochrom). Mycoplasma contamination was routinely monitored, and only mycoplasma–free cultures were used.
# MTT [3-(4,5-dimethylthiazol-2-yl)-2,5-diphenyltetrazolium bromide] (ABCR) was used to determine the cytotoxicity of test compounds as previously described. Briefly, HDFa human dermal fibroblasts and Ea.Hy926 endothelial hybrid cells (both 1 × 10^5 cells/mL, 100 µL/well), 518A2 melanoma, KB-V1^Vbl cervix carcinoma, MCF-7^Topo breast carcinoma, HT-29, DLD-1 and HCT-116 colon carcinoma (all 5 × 10^4 cells/mL, 100 µL/well) were grown in 96-well culture plates for 24 h. Then, various concentrations of the test compounds were added and the cells were incubated for 24-72 h at 37 °C. After adding 12.5 µL of a 0.5% MTT solution in PBS (final concentration 0.05%) to cell medium, microplates were incubated for 2 h and subsequently swiftly turned to discard the medium. The precipitate of formazan crystals was then dissolved in a 10% solution of SDS in DMSO containing 0.6% acetic acid. To ensure complete dissolution of formazan, microplates were incubated for at least 4 h at 37 °C. Finally, the absorbance at λ = 570 nm (formazan) and 630 nm (background) was measured using a microplate reader (Tecan F200). All experiments were carried out in quadruplicate and the percentage of viable cells was calculated as the mean ± SD with controls set to 100%. Selected graphs of MTT assays can be found in the Supporting Information (Figure S8).
# [1] = biological target: T1, purified pig brain tubulin (Sus scrofa, UniProt P02550+P02554); experiment: Turbidimetric cell-free tubulin polymerization assay; assay type: biochemical; settings: 10 µM, 340 nm
# T1 construct: using purified pig brain tubulin; from tissue; host or cells: pig brain
# T1 sequence (P02554 whole entry): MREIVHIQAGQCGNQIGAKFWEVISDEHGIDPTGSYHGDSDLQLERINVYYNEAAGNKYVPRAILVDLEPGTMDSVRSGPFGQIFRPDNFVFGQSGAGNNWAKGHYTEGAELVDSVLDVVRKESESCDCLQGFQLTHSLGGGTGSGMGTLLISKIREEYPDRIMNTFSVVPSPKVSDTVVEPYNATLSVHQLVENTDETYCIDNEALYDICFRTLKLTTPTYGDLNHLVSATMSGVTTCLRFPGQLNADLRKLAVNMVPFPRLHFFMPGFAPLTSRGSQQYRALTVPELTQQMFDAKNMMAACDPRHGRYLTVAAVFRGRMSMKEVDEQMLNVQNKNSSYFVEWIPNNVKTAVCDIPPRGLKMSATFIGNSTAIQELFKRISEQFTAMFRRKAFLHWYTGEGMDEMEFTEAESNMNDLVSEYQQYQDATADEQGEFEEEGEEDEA
# T1 sequence (P02550 whole entry): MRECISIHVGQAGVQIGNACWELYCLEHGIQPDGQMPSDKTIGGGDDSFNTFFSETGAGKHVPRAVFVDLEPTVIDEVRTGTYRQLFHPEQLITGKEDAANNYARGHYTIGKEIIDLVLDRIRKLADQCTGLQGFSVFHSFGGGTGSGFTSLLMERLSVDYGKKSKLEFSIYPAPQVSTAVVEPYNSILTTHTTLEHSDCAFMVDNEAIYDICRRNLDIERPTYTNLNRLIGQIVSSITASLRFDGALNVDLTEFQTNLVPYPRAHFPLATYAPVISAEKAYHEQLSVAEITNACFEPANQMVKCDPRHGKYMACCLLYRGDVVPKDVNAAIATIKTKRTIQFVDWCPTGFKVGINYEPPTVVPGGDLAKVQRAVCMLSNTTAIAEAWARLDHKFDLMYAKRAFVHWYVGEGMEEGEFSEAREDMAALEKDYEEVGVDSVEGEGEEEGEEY
# Experimental: An amount of 50 µL of Brinkley’s buffer 80 (BRB80) supplemented with 20% glycerol and 3 mM GTP was given in a black 96-well half-area plate with clear bottom. Then, test compounds 4d–f (final concentration: 5 µM, or 10 µM) or vehicle (DMSO) were added. After adding 50 µL tubulin in BRB80 (10 mg/mL) was pipetted in the wells and immediately placed in a pre-heated microplate reader (Tecan). The polymerization was determined turbidimetrically at 37 °C by measuring the absorption at 340 nm for 120 min in intervals of 5 min. Values were normally distributed for each group (Shapiro–Wilk test, p > 0.05) and there was homogeneity of variance (Levene’s test, p > 0.05).
# [2] = system: p21, p27, cyclin D1 in 518A2 melanoma cells; experiment: Western blot of cell cycle regulatory proteins; assay type: cell-based, human; settings: 24 h; for effect on p21 expression: 4d […]–4 µM, SAHA 5 µM
# Experimental: After harvesting and lysing of the cells, western blotting was performed as described before. For subsequent analysis, the protein-loaded membranes were incubated with antibodies directed against p21 (Abcam ab109199), p27 ([…]), cyclin D1 (Cell Signaling 29225) and GADPH (Santa Cruz sc25778) in 1:1000 dilutions. After incubation with horseradish peroxidase-coupled anti-IgG antibodies (1:10,000; Amersham), the blot was developed using the Celvin-S developer (Biostep) and the software SnapAndGo 1.8.1.
# [3] = 518A2, read-out: IC50 518A2 (72 h), 72 h
# [4] = 518A2, 24 h, read-out: IC50 518A2 (24 h)
SMILES,"IC50 after 72 h compared with IC50 after 24 h (518A2 melanoma cells; 518A2 melanoma cells, fold lower)",IC50 (518A2 melanoma cells; [3]) [nM],IC50 (518A2 melanoma cells; [4]) [nM],inhibition of tubulin polymerization [1],effect on p21 expression [2],effect on cyclin D1 level ([2]; 4d 0.15–4 µM)
"COc1ccc(-c2ocnc2-c2cc(Br)c(OC)c(OC)c2)cc1OCCCC(=O)NO [4d, N-Hydroxy-4-[1-methoxy-4-(4’-(3’’-bromo-4’’,5’’-dimethoxyphenyl)oxazol-5’-yl)-2-phenoxy]butanamide]",about eight-fold,110 ± 10,710 ± 50,inhibited the polymerization of pig brain tubulin nearly completely; also recorded: significant inhibition of tubulin polymerization,distinctly suppressed p21 expression,increased the level of cyclin D1
"COc1ccc(-c2ocnc2-c2cc(Br)c(OC)c(OC)c2)cc1OCCCCC(=O)NO [4e, N-Hydroxy-5-[1-methoxy-4-(4’-(3’’-bromo-4’’,5’’-dimethoxyphenyl)oxazol-5’-yl)-2-phenoxy]pentanamide]",–,800 ± 70,2400 ± 300,merely moderate inhibitory effect,–,–
"COc1ccc(-c2ocnc2-c2cc(Br)c(OC)c(OC)c2)cc1OCCCCCC(=O)NO [4f, N-Hydroxy-6-[1-methoxy-4-(4’-(3’’-bromo-4’’,5’’-dimethoxyphenyl)oxazol-5’-yl)-2-phenoxy]hexanamide]",–,6400 ± 400,7600 ± 200,virtually none,upregulated p21 expression in a dose-dependent way,–
